Measurements from ChEMBL document CHEMBL1201862, “PubChem BioAssay data set” (2004).
Calls of active or inactive are those of the source.

Tests used:
Cysteine protease ATG4B = target: T1, Cysteine protease ATG4B (Homo sapiens, UniProt Q9Y4P1); type: functional;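 note: Fluorescence-based dose-response confirmation assay measuring inhibition of ATG4B activity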
T1 sequence (Q9Y4P1 whole entry): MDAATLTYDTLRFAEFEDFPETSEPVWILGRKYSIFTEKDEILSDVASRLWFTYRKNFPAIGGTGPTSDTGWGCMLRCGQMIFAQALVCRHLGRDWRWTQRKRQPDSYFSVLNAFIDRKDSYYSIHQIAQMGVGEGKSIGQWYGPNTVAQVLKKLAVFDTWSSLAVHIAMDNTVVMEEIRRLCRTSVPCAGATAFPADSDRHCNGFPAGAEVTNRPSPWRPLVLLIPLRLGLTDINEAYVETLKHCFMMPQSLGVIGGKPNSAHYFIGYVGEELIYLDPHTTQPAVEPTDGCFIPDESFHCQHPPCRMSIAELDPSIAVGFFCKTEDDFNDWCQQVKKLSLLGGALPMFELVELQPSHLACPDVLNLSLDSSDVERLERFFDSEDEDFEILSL

Phospholipase A2 = Phospholipase A2 (Homo sapiens, UniProt P04054); type: functional;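 note: confirmatory dose-response counterscreen on phospholipase A2, testing hits that came from an ultra-high-throughput screen for ATG4B inhibitors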
Chain of Phospholipase A2 (P04054 whole entry): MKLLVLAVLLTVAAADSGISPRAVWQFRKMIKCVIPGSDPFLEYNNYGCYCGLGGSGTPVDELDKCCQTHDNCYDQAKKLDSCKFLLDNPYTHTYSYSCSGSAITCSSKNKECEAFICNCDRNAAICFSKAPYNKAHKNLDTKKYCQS

[1] = target: T2, DNA repair and recombination protein RAD54-like (Homo sapiens, UniProt Q92698); assay: RAD54 Holliday junction migration blockers – biochemical, fluorescence, cherry-picked samples, dose series, confirmation (AID 651657); type: functional
T2 sequence (Q92698 whole entry): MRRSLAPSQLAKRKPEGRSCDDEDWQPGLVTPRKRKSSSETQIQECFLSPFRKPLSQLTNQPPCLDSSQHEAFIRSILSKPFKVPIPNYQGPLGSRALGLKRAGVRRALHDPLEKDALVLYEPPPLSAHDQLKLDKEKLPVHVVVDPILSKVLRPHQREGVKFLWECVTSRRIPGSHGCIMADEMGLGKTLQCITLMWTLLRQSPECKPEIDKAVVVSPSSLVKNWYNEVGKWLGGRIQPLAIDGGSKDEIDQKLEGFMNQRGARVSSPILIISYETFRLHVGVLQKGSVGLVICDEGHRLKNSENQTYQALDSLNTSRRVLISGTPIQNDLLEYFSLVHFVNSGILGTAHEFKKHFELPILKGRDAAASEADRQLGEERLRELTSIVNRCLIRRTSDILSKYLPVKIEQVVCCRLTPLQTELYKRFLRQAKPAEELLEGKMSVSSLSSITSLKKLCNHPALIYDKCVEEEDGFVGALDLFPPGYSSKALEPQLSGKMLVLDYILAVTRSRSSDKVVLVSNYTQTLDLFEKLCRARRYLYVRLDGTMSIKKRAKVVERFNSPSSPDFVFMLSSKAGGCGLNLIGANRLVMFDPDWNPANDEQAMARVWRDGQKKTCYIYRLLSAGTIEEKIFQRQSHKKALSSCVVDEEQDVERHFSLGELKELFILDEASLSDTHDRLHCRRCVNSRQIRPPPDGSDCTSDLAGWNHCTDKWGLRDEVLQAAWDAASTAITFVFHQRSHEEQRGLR

[2] = target: T3, High affinity choline transporter 1 (Homo sapiens, UniProt Q9GZV3); assay: human choline transporter blockers, potency – cell-based, 5-point CRC, membrane potential dye, dose response (AID 504840); type: functional
T3 sequence (Q9GZV3 whole entry): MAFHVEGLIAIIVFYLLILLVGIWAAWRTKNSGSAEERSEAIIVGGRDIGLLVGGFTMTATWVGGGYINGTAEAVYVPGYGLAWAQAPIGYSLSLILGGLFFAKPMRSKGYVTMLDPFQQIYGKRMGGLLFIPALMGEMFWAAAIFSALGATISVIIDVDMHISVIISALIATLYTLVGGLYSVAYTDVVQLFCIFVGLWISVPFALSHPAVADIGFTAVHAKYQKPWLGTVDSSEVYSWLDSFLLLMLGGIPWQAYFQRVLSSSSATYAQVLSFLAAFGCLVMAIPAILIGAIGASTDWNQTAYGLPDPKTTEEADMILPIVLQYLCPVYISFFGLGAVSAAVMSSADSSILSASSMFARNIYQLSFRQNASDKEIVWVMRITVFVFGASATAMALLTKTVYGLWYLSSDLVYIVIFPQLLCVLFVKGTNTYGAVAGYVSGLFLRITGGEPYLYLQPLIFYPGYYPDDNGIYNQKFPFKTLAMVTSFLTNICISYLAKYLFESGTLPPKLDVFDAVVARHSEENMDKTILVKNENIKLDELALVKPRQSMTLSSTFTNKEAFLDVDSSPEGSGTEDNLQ

[3] = target: T3, High affinity choline transporter 1; assay: human choline transporter blockers, potency – cell-based, 10-point CRC, membrane potential dye, dose response (AID 588401); type: functional;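 note: membrane potential dye fluorescence of choline-evoked depolarization via CHT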
[4] = A cytotoxicity screen of small molecule inhibitors of the PhoP region in Salmonella typhi identified in the primary screen. [Related pubchem assays: 1850, 1864, 1985 ]; type: functional
HEK293 = assay: EBV LMP1 TES2 canonical NF-kB signalling blockers – cell-based, HEK293, luciferase, cherry-pick, dose response (AID 588343); type: functional; conditions: Homo sapiens
[5] = target: T4, C-C chemokine receptor type 6 (Homo sapiens, UniProt P51684); assay: antagonism of CCR6 beta-arrestin recruitment – cell-based, luminescent beta-arrestin readout, dose response (AID 504728); type: functional
T4 sequence (P51684 whole entry): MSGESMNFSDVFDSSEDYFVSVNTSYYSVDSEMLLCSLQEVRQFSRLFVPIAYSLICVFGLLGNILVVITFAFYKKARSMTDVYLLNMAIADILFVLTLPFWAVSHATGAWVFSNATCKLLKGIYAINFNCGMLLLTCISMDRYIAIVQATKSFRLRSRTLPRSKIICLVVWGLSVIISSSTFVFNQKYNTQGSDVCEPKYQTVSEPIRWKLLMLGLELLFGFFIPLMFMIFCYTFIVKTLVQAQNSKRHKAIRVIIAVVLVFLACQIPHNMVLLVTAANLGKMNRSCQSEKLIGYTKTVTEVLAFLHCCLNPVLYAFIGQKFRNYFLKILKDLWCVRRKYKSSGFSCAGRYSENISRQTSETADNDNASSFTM

Beta-galactosidase = Beta-galactosidase (Escherichia coli, UniProt Q8VNN2); assay: detection-enzyme interference by beta-gal modulators – biochemical, E. coli enzyme, set 3, artefact control for CCR6 antagonist project, dose response (AID 504712); type: functional
Chain of Beta-galactosidase (Q8VNN2 whole entry): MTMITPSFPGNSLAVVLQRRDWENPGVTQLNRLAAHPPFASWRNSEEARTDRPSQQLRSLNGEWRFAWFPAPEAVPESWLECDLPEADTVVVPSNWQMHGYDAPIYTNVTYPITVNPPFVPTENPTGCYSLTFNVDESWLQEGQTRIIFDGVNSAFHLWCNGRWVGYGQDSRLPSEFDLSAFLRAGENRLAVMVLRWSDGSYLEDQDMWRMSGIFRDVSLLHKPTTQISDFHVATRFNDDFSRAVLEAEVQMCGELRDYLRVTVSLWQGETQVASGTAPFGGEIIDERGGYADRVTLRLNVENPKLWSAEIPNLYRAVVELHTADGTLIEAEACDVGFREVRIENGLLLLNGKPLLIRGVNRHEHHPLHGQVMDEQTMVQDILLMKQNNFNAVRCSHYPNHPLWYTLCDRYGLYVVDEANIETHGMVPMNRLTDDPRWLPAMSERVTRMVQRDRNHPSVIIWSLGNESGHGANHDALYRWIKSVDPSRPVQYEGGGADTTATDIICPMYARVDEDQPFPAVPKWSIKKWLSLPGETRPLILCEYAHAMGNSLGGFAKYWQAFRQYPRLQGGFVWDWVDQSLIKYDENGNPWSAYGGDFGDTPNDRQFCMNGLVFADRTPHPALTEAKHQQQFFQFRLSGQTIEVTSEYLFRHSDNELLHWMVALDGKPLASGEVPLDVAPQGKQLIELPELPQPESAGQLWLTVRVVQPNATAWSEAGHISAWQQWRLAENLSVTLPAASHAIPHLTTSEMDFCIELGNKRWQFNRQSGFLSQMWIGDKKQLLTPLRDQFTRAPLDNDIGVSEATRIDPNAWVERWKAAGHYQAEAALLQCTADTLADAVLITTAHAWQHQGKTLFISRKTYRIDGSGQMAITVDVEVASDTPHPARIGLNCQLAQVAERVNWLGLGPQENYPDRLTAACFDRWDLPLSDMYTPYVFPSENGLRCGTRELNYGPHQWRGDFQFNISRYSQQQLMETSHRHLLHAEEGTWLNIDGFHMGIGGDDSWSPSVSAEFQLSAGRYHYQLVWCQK

Melanocortin receptor 4 = Melanocortin receptor 4 (Homo sapiens, UniProt P32245); assay: inhibitors of MC4R cAMP signaling – cell-based, TR-FRET, biased antagonists, dose response (AID 602298); type: functional;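 note: antagonist potency against agonist-stimulated cAMP production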
Chain of Melanocortin receptor 4 (P32245 whole entry): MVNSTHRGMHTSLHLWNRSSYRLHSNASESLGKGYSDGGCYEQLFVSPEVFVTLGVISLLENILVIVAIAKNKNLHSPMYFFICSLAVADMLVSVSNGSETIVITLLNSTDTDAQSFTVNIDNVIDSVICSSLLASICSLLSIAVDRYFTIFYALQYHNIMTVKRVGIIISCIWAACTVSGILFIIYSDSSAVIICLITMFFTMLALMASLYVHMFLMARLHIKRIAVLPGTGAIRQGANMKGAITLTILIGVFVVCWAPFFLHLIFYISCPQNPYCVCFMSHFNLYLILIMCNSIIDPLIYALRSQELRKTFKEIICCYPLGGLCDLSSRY

[6] = cAMP pathway inhibition in counterscreen cell line – TR-FRET cAMP detection, counter-screen for MC4R biased antagonist project, dose response (AID 602305); type: functional, cell-based;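 note: U2OS cells stimulated with forskolin near its EC80 as the cAMP inducer; potency is for inhibition of forskolin-stimulated cAMP signaling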
Hexokinase HKDC1 = target: T5, Hexokinase HKDC1 (Homo sapiens, UniProt Q2TB90); assay: inhibition of HKDC1 glucose phosphorylation – biochemical, W721R variant, dose response (AID 504729); type: functional
T5 sequence (Q2TB90 whole entry): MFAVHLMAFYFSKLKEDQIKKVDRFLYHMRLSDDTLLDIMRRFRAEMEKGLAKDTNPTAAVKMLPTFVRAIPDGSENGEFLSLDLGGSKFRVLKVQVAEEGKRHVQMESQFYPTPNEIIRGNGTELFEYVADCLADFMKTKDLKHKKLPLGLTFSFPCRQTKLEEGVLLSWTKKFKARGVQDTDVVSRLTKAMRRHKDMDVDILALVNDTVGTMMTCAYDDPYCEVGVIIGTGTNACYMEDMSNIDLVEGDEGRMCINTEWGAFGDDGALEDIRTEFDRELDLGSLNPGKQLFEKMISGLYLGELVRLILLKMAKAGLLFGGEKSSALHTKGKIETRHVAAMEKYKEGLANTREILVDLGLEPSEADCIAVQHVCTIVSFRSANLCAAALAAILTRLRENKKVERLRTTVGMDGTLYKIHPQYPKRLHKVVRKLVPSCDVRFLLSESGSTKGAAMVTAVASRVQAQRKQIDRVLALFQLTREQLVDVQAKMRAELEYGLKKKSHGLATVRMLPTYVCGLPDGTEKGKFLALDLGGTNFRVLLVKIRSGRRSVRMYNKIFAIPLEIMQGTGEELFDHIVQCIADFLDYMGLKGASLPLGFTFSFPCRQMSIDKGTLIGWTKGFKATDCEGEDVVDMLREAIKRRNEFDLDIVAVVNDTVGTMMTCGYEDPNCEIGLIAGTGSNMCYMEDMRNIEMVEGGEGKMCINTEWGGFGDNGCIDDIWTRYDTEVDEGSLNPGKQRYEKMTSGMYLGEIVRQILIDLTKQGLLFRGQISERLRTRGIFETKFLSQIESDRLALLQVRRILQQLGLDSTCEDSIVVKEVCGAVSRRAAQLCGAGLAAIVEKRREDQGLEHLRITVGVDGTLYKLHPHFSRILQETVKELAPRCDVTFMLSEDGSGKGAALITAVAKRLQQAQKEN

Genome polyprotein = Genome polyprotein (dengue virus type 2, UniProt P29990); assay: flavivirus cap methylation enzyme inhibition – biochemical, confirmation dose response, primary screen (AID 588689); type: functional
[7] = target: T6, Ubiquitin-conjugating enzyme E2 N (Homo sapiens, UniProt P61088); type: functional;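 note: Dose-response confirmation in a TR-FRET assay detecting UBC13-driven polyubiquitin chain formation, inhibition measured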
T6 sequence (P61088 whole entry): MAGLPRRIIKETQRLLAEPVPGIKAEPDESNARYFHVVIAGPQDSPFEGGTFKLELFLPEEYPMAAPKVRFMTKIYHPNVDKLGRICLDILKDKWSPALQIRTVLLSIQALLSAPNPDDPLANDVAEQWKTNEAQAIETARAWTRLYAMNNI

[8] = target: Ras and Rab interactor 1/Tyrosine-protein kinase ABL1 (Homo sapiens, UniProt P00519+Q13671); type: functional;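 note: biochemical TR-FRET dose-response test measuring inhibition of binding between Rin1 and Abl proteins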
[9] = target: Ribosomal protein S6 kinase beta-1 (Homo sapiens, UniProt P23443); type: functional;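 note: measured as one member of a kinome-wide profiling panel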
[10] = target: Proto-oncogene tyrosine-protein kinase ROS (Homo sapiens, UniProt P08922); type: functional;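 note: ROS1 tested as one member of a kinome-wide kinase panel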
LIM domain kinase 1 = LIM domain kinase 1 (Homo sapiens, UniProt P53667); assay: Navigating the Kinome. Panel member name: LIMK1; type: functional
Chain of LIM domain kinase 1 (P53667 whole entry, the tested form may be a part): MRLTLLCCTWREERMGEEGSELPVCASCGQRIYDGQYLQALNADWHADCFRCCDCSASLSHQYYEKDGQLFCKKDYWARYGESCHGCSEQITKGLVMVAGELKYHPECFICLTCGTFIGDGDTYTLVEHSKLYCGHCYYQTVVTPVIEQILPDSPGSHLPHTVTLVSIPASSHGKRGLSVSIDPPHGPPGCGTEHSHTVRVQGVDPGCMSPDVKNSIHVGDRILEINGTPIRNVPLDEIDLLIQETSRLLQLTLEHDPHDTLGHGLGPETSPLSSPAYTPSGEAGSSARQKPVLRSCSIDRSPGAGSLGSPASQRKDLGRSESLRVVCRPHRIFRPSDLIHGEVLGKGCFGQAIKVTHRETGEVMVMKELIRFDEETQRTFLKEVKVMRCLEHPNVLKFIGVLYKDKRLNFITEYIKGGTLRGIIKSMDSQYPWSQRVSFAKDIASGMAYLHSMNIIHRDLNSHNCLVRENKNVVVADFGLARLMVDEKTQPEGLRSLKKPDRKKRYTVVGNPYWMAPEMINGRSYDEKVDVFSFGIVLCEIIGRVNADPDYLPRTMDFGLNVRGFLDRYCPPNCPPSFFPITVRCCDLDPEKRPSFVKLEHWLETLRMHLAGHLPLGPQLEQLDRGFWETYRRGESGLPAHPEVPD

[11] = target: Rho-associated protein kinase 1 (Homo sapiens, UniProt Q13464); type: functional;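 note: measured within a broad kinome-wide panel profiling many kinases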
[12] = target: Cyclin-dependent kinase 8 (Homo sapiens, UniProt P49336); assay: Navigating the Kinome. Panel member name: CDK8; type: functional
Chain of Cyclin-dependent kinase 8 (P49336 whole entry): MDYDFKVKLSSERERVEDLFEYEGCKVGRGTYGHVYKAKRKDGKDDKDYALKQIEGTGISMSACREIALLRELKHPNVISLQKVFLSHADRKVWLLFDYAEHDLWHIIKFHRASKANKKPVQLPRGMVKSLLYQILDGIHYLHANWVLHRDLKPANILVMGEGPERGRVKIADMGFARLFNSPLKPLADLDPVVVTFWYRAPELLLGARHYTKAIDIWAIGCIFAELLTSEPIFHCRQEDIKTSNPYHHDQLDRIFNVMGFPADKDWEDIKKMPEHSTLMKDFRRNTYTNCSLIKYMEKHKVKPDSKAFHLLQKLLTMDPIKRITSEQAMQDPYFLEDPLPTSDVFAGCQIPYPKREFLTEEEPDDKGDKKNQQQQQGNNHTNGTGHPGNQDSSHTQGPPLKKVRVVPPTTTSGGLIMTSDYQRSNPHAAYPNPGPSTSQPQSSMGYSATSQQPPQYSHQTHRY

[13] = target: Vascular endothelial growth factor receptor 1 (Homo sapiens, UniProt P17948); type: functional;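 note: measured within a kinome-wide profiling panel, FLT1 as the panel member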
Chain of Vascular endothelial growth factor receptor 1 (P17948 whole entry): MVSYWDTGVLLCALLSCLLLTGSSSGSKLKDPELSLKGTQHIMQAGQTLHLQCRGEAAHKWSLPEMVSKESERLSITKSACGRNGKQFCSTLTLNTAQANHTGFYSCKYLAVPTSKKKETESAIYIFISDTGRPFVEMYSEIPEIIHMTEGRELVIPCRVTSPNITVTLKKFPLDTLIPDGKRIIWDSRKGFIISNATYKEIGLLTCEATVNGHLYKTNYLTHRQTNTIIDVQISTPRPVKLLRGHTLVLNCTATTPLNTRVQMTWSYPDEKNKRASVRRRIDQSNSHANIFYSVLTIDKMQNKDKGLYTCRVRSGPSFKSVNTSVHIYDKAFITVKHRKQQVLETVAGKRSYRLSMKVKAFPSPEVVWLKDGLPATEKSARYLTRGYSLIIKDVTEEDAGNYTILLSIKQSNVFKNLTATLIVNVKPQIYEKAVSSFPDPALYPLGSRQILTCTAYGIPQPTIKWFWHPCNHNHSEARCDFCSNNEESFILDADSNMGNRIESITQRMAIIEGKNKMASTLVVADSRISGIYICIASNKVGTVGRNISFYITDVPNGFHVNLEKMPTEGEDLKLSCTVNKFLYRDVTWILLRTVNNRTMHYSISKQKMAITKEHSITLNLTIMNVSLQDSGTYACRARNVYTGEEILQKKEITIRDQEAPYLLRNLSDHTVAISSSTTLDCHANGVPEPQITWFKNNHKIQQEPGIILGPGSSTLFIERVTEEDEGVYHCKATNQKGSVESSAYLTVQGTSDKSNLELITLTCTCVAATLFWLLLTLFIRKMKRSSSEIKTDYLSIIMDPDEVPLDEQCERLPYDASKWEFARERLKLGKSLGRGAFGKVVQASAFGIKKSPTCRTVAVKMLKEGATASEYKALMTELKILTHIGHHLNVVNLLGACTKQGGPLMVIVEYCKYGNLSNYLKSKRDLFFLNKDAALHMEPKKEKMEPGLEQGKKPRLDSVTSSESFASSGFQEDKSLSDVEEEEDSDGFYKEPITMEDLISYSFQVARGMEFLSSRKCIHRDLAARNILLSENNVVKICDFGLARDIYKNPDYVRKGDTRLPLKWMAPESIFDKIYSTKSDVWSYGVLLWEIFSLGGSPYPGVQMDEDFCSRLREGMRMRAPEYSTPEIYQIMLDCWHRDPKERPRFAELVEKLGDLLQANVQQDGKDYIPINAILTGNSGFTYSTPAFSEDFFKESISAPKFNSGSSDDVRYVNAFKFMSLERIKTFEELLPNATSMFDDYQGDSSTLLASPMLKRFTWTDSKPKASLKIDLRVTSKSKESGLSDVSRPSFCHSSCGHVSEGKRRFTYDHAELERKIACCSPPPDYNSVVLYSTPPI

[14] = target: Cyclin-dependent kinase 9 (Homo sapiens, UniProt P50750); type: functional;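 note: value from the CDK9 entry of a kinome-spanning kinase panel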
Chain of Cyclin-dependent kinase 9 (P50750 whole entry): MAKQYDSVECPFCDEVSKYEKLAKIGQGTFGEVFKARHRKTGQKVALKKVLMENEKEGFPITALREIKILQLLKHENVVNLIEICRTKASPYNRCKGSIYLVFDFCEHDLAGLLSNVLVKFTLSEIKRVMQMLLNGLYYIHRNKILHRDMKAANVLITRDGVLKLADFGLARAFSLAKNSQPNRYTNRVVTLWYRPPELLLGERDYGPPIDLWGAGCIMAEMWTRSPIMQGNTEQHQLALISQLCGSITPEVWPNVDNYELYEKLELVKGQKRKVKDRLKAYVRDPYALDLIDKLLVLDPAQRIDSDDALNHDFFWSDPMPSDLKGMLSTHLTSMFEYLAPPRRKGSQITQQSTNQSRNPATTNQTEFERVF

[15] = target: Dual specificity protein kinase CLK4 (Homo sapiens, UniProt Q9HAZ1); type: functional
Chain of Dual specificity protein kinase CLK4 (Q9HAZ1 whole entry): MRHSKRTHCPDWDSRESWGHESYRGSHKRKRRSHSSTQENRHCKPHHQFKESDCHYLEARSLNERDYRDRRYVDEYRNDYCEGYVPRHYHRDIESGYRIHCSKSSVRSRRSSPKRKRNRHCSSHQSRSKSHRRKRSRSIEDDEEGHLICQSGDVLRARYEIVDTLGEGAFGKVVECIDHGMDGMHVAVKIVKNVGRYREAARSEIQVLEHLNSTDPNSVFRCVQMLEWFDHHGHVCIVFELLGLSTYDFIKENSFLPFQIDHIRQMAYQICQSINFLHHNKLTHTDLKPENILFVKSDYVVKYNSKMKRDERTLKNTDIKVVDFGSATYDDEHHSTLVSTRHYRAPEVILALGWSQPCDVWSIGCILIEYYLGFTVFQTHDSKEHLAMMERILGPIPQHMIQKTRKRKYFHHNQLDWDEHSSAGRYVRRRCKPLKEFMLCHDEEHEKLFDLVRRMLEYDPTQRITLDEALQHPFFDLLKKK

Cc1ccc2nc3c(c(Nc4ccc5c(c4)OCCO5)c2c1)CCC3
IC50 (Cysteine protease ATG4B): 10.7 µM (active)
IC50 (Phospholipase A2): 7.53 µM (active)
AC50 [1]: 54.9 µM (active)

O=C(O)CC1=C(Nc2ccccc2)C(=O)N(c2ccccc2)C1c1ccc(Br)cc1 (stereo unspecified)
IC50 [2]: 5.55 µM (active)
IC50 [3]: 3.98 µM (active)

Cc1nnc(SCc2cnc(-c3ccc(C(C)C)cc3)s2)n1C
EC50 [4]: > 50 µM (active)
AC50 (HEK293): 4.43 µM (active)
IC50 [2]: 1.28 µM (active)
IC50 [3]: 10 µM (active)

O=C1/C(=C/c2ccc([N+](=O)[O-])cc2)C=C(c2ccccc2)N1c1ccc(O)cc1
IC50 [5]: > 66.6 µM (inactive)
IC50 (Beta-galactosidase): > 66.6 µM (inactive)
IC50 (Melanocortin receptor 4): > 64.6 µM (inactive)
IC50 [6]: > 64.6 µM (inactive)

COC1=C(Br)C(=O)c2ncccc2C1=O
IC50 [5]: > 66.6 µM (inactive)
IC50 (Beta-galactosidase): > 66.6 µM (inactive)
IC50 (Hexokinase HKDC1): 3.56 µM (active)
IC50 (Cysteine protease ATG4B): 3.53 µM (active)
IC50 (Phospholipase A2): > 80 µM (inactive)
IC50 (Genome polyprotein): 3.41 µM (active)

CC(C)[C@H](CN1CCC[C@H]1CN1C(N)=NC[C@@H]1Cc1ccccc1)N1C[C@@H](Cc2ccccc2)N(CCc2ccc(Cl)c(Cl)c2)C1=N
IC50 [7]: > 20 µM (inactive)
IC50 (Melanocortin receptor 4): 7.16 µM (active)
IC50 [6]: > 64.6 µM (inactive)

CN(CCc1ccccc1)C(=O)c1ccc(NC(=O)Cc2ccc(NC(=O)C3CCN(C(=O)C4CCCC4)CC3)cc2)cc1
IC50 [8]: 1.38 µM (active)

O=C(Cc1cccc2cnccc12)NCc1ccc(Br)cc1
Ki [9]: 6.31 µM (active)
Ki [10]: 1.58 µM (active)

Cc1ccccc1-c1cccc2nccn12
Ki (LIM domain kinase 1): 79.4 µM (active)
Ki [11]: 63.1 µM (active)
Ki [12]: 12.6 µM (active)
Ki [13]: 15.8 µM (active)
Ki [14]: 39.8 µM (active)
Ki [15]: 79.4 µM (active)
